Assay results from EP4332093A1, “SALT CONTAINING PIPERAZINE POLYCYCLIC DERIVATIVE, CRYSTAL FORM THEREOF, PREPARATION METHOD THEREFOR, AND USE THEREOF” (Shanghai Hansoh Biomedical Co., Ltd., priority 2021, dated 2022).
Counter-ions that a name gives are not always drawn.

Legend:
Format in all cases: physicochemical
[1] = Salt form quantification (HPLC-ELSD); details: Conclusion from Cl- content compared with theoretical values
Experimental: The number of acids binding in the salt form was quantified by HPLC-ELSD test. An appropriate amount of NaCl was weighed, and a series of linear solutions of different concentrations with the diluent acetonitrile-water (50:50) was prepared. […] The above linear solution and hydrochloride samples solution was taken to filter. [table]

[2] = Thermodynamic stability experiment of crystal form (pulping in solvents, XRPD); details: for Results after pulping (crystal form by XRPD): pulped for 1 week at room temperature and 50°C
Experimental: An organic solvent with a certain solubility was selected. […] The supernatant was discarded, and the solid was dried in vacuum (-0.1 Mpa) overnight at 50°C. The XRPD of the solid was determined and compared with XRPD of raw compound salt.

[3] = Crystal form stability study of hydrochloride for 30 days; details: 30 days; light 5000lux, 60°C, 92.5% RH, 40°C & 75% RH
Experimental: The diluent 80% methanol solution was added to prepare a solution containing about 0.5 mg/mL hydrochloride. The mixture was sonicated for 30min to produce a clear solution. 1mL of the soluion was filtered and measured by HPLC. See "2.3.4" for the HPLC analysis method. The content of related substances was calculated according to the peak area normalization method, and the results are shown in Table 32 below. Table 32 HPLC data of hydrochloride in stability experimental conditions for 30 days

[4] = Pressure crystal transformation test; details: tablet press at maximum pressure
Text: The tablet press was adjusted to the maximum pressure. It was pressed into a tablet and then was subjected to PXRD characterization.

[5] = Grinding crystal transformation test; details: ground in a mortar for 5 min
[6] = Hygroscopicity experiment of crystal form A of hydrochloride
[7] = Solid stability experiment of crystal forms of salt (5 and 10 days); details: all conditions: light 5000lx, 60°C, 92.5% RH, 50°C 75% RH; 5 and 10 days
Experimental: About 1 mg of different crystal forms of salt were taken and placed under the conditions of light 5000lx, high temperature 60°C, high humidity 92.5%RH, high temperature and high humidity 50°C 75%RH for 5 days and 10 days. The salt content was determined by HPLC and external standard method, and the change of relevant substances was calculated by chromatographic peak area normalization method.

With `O=C(N[C@H]1C[C@H](CCN2CCN(c3cccc(Cl)c3Cl)CC2)C1)c1ncco1` [crystal form A of hydrochloride] the “The number of hydrochloric acid binding” value [1] was “The number of hydrochloric acid binding in crystal form A of hydrochloride is 1”, the “Results after pulping (crystal form by XRPD)” value (“Results after pulping” for short) ([2]; 1,4-Dioxane) was “Crystal form A” and the “crystal form after being pulped by different solvents (XRPD)” value ([2]; 1 week at room temperature and 50°C) was “the crystal form does not change”. For the same compound, the “Results after pulping” value ([2]; 2-Butanone) was “Crystal form A”, the “Results after pulping” value ([2]; 2-Methyl-tetrahydrofuran) was “Crystal form A” and the “Results after pulping” value ([2]; Acetone) was “Crystal form A”. The “Results after pulping” value ([2]; Acetonitrile) was “Crystal form A”, the “Results after pulping” value ([2]; Dichloromethane) was “Crystal form A” and the “Results after pulping” value ([2]; Ethanol) was “Crystal form A”. The “Results after pulping” value ([2]; Ethyl acetate) was “Crystal form A”, the “Results after pulping” value ([2]; Ethyl formate) was “Crystal form A” and the “Results after pulping” value ([2]; Isopropanol) was “Crystal form A”. For the same compound, the “Results after pulping” value ([2]; Methanol) was “Crystal form A”, the “Results after pulping” value ([2]; Methyl tert-butyl ether) was “Crystal form A” and the “Results after pulping” value ([2]; Tetrahydrofuran) was “Crystal form A”. The “Results after pulping” value ([2]; Toluene) was “Crystal form A”, the “Results after pulping” value ([2]; n-Heptane) was “Crystal form A” and the “crystal form change (PXRD)” value [3] was “does not undergo crystal form change”. For the same compound, the “impurities (HPLC)” value [3] was “do not increase significantly”, the “crystal transformation before and after pressure (PXRD)” value [4] was “didn't undergo crystal transformation” and the “crystal transformation before and after grinding (PXRD)” value [5] was “didn't undergo crystal transformation”. The hygroscopicity [6] was “slightly hygroscopic”, the “XRPD pattern after humidification and dehumidification” value ([6]; 2 cycles, 0 to 95% relative humidity) was “does not change” and the hygroscopic weight gain ([6]; RH 80%) was 0.509%. For the same compound, the “crystal form stability (impurities)” value [7] was “stable under all conditions”.
